Measurements as given in the CheMixHub viscosity set.

Assay: xn = mol fraction of the nth substance listed

Cc1ccccc1C + CCOC(C)=O
Settings	viscosity [mPa·s]
298.15 K, 101 kPa, x2 = 0.0459	0.74
298.15 K, 101 kPa, x2 = 0.1515	0.698
298.15 K, 101 kPa, x2 = 0.2504	0.661
298.15 K, 101 kPa, x2 = 0.349	0.625
298.15 K, 101 kPa, x2 = 0.4636	0.586
298.15 K, 101 kPa, x2 = 0.4948	0.576
298.15 K, 101 kPa, x2 = 0.5519	0.557
298.15 K, 101 kPa, x2 = 0.6488	0.527
298.15 K, 101 kPa, x2 = 0.7509	0.496
298.15 K, 101 kPa, x2 = 0.8487	0.468
298.15 K, 101 kPa, x2 = 0.9146	0.45
303.15 K, 101.32 kPa, x2 = 0.0599	0.679
303.15 K, 101.32 kPa, x2 = 0.1789	0.638
303.15 K, 101.32 kPa, x2 = 0.2918	0.601
303.15 K, 101.32 kPa, x2 = 0.4303	0.557
303.15 K, 101.32 kPa, x2 = 0.4994	0.535
303.15 K, 101.32 kPa, x2 = 0.5537	0.52
303.15 K, 101.32 kPa, x2 = 0.6001	0.507
303.15 K, 101.32 kPa, x2 = 0.6951	0.483
303.15 K, 101.32 kPa, x2 = 0.7859	0.457
303.15 K, 101.32 kPa, x2 = 0.873	0.437
303.15 K, 101.32 kPa, x2 = 0.9583	0.414
308.15 K, 101 kPa, x2 = 0.0459	0.643
308.15 K, 101 kPa, x2 = 0.1515	0.61
308.15 K, 101 kPa, x2 = 0.2504	0.579
308.15 K, 101 kPa, x2 = 0.349	0.551
308.15 K, 101 kPa, x2 = 0.4636	0.518
308.15 K, 101 kPa, x2 = 0.4948	0.51
308.15 K, 101 kPa, x2 = 0.5519	0.495
308.15 K, 101 kPa, x2 = 0.6488	0.47
308.15 K, 101 kPa, x2 = 0.7509	0.444
308.15 K, 101 kPa, x2 = 0.8487	0.421
308.15 K, 101 kPa, x2 = 0.9146	0.406
313.15 K, 101.32 kPa, x2 = 0.2056	0.565
313.15 K, 101.32 kPa, x2 = 0.4079	0.508
313.15 K, 101.32 kPa, x2 = 0.5023	0.483
313.15 K, 101.32 kPa, x2 = 0.5988	0.459
313.15 K, 101.32 kPa, x2 = 0.8018	0.411

CCCCCCCCCCO + CO
viscosity [mPa·s], 101 kPa
Settings	298.15 K	308.15 K	318.15 K
x2 = 0.05	10.38	7.137	5.136
x2 = 0.1	9.75	6.75	4.899
x2 = 0.15	9.096	6.352	4.649
x2 = 0.2	8.429	5.944	4.39
x2 = 0.25	7.757	5.531	4.121
x2 = 0.3	7.086	5.115	3.847
x2 = 0.35	6.425	4.699	3.567
x2 = 0.4	5.779	4.287	3.285
x2 = 0.45	5.154	3.88	3.003
x2 = 0.5	4.554	3.481	2.721
x2 = 0.55	3.984	3.093	2.443
x2 = 0.6	3.448	2.719	2.171
x2 = 0.65	2.947	2.36	1.905
x2 = 0.7	2.485	2.02	1.649
x2 = 0.75	2.063	1.7	1.405
x2 = 0.8	1.681	1.403	1.174
x2 = 0.85	1.34	1.131	0.958
x2 = 0.9	1.038	0.886	0.76
x2 = 0.95	0.776	0.669	0.582

CC(C)CCC[C@@H](C)[C@H]1CC[C@H]2[C@@H]3CC=C4C[C@@H](O)CC[C@]4(C)[C@H]3CC[C@]12C + ClCCCl
viscosity [mPa·s], 101.33 kPa
Settings	298 K	303 K	313 K	323 K
x1 = 0.00307	0.794	0.743	0.659	0.587
x1 = 0.00516	0.812	0.761	0.673	0.599
x1 = 0.00648	0.825	0.772	0.682	0.608
x1 = 0.00816	0.84	0.785	0.692	0.619

CN1CCN(C)C1=O + CCCCCCCCn1cc[n+](C)c1.[Cl-]
100 kPa
Settings	viscosity [mPa·s]
293.15 K, x2 = 0.6016	985.8
313.15 K, x2 = 0.7994	773.5
318.15 K, x2 = 0.105	3.715
323.15 K, x2 = 0.7994	404.5

CCCCCCCCCCO + CCCCCCCO
viscosity [mPa·s], 101.8 kPa
Settings	x2 = 0.1302	x2 = 0.3682	x2 = 0.5771	x2 = 0.7604	x2 = 0.9256
298.15 K	10.82	9.364	8.193	7.155	6.307
308.15 K	7.586	6.635	5.836	5.18	4.596
318.15 K	5.438	4.801	4.264	3.812	3.413

CCCCCCCCCCO + CCCCCCCCCC
298.15 K, 101.3 kPa
Settings	viscosity [mPa·s]
x1 = 0.0518	0.924
x1 = 0.1069	1.021
x1 = 0.1649	1.168
x1 = 0.2141	1.308
x1 = 0.2591	1.457
x1 = 0.3013	1.618
x1 = 0.4008	2.078
x1 = 0.5047	2.74
x1 = 0.6063	3.619
x1 = 0.6847	4.535
x1 = 0.8044	6.474
x1 = 0.8482	7.392
x1 = 0.8943	8.5
x1 = 0.9494	10.05

Cc1ccccc1C + CCCCCC
viscosity [mPa·s], 101.33 kPa
Settings	x2 = 0.29	x2 = 0.6	x2 = 0.79
293.15 K	0.5875	0.4736	0.3659
313.15 K	0.4679	0.3797	0.3022
